In patent US20160106719A1, “Transplantation Adjuvant in Cell Therapy Using Neural Progenitor Cells” (SUMITOMO DAINIPPON PHARMA CO., LTD., priority 2013, published 2016):

Tested on: grafts derived from mouse iPS cells
Assay: Transplantation experiment of mouse iPS cell-derived dopamine neural progenitor cells into striatum of SD rats (immunohistochemistry of grafts)
Format: in vivo
Details: four weeks after transplantation
Method: Ten-week-old Sprague-Dawley rats (SD rats, available from Shimizu Laboratory Supplies Co., Ltd.) were handled in accordance with the Guidelines for Animal Experiments of Kyoto University. Each SD rat was anesthetized, and donor cells were transplanted by stereotaxic injection into striatums on both sides. Two cell aggregates (containing 3.1×10^5 cells on average) obtained on day 9 after starting the SFEB were collected in 1 μl of PBS(-) so as to be used as the donor cells for the transplantation in each tract. To the PBS(-), Y-27632 was added at a final concentration of […]. Thereafter, intraperitoneal injection of VPA (150 mg/kg/day), ZNS sodium salt (30 mg/kg/day), E2 (80 μM/kg/day) or a saline was conducted from two days before transplanting the donor cells until a day of necropsy. For immunosuppression, cyclosporin A (CsA, manufactured by Wako Pure Chemical Industries, Ltd.) was administered to all the SD rats at a daily dose of 10 mg/kg. Four weeks after the transplantation of the donor cells, the brains of the SD rats were washed and fixed by intracardially perfusing 4% paraformaldehyde under deep anesthesia. On the day of necropsy, a blood sample was collected from each SD rat one hour after the final injection of the test compound or CsA. Such a sample was sent to SRL, Inc. (Tokyo, Japan) where the blood concentration of the administered drug (test compound) was measured.
In an in vitro experiment, a cell aggregate treated with any of the above-described test compounds on day 14 after starting the SFEB was fixed with 4% paraformaldehyde. Thereafter, the fixed cell aggregate was frozen and sliced into thin sections each having a thickness of 10 μM by using a microtome for immunocytochemistry. On the other hand, in an in vivo experiment (transplantation experiment), the brain of a SD rat or a SCID rat was taken out after the transplantation experiment to be fixed again with 4% paraformaldehyde for 2 days. Thereafter, the fixed brain of the SD rat or SCID rat was cryopreserved in 30% sucrose for 3 days, frozen, and sliced into thin sections each having a thickness of 40 μM for immunohistochemistry. The frozen sections of the sphere (spherical cell mass) and the brain were subjected to a permeabilization and blocking treatment in PBS(-) for 1 hour at room temperature to be used as samples. The PBS(-) contained 0.3% Triton-X and 2% donkey serum. Thereafter, each of the sections was incubated overnight together with a primary antibody at 4° C. Primary antibodies used in this example are a rabbit anti-tyrosine hydroxylase antibody (dilution rate of 1:400, TH; manufactured by Millipore), a mouse anti-TH antibody (dilution rate of 1:200, manufactured by Millipore), a sheep anti-TH antibody (dilution rate of 1:400, manufactured by Millipore), a mouse anti-Tubβ3 antibody (dilution rate of 1:1000, Tuj1; manufactured by Covance Inc.), a rat anti-NURR1 antibody (dilution rate of 1:1000, KAN Research Institute, Inc., Kobe, Japan), a rabbit anti-Ki67 antibody (dilution rate of 1:1000, manufactured by Novocastra: NCL-Ki67p), a rabbit anti-caspase 3 antibody (dilution rate of 1:500, manufactured by Santa Cruz Biotechnology, Inc.), a rat anti-M2M6 antibody (dilution rate of 1:50, manufactured by Developmental Study Hybridoma Bank), a mouse anti-Nestin antibody (dilution rate of 1:50; manufactured by Millipore), a rabbit anti-Pitx3 antibody (dilution rate of 1:500; manufactured by Chemicon International Inc.), a goat […] antibody (dilution rate of 1:500, Foxa2; manufactured by Santa Cruz Biotechnology, Inc.), a mouse anti-human Nuclei antibody (dilution rate of 1:1000; manufactured by Millipore), and a mouse anti-NeuN antibody (dilution rate of 1:500, manufactured by Chemicon International Inc.). After washing with PBS (0.05% Tween-20) three times, the resultant sample was incubated with an Alexa Fluor-conjugated secondary antibody for 1 hour at room temperature. […]

Question: `CCCC(CCC)C(=O)[O-].[Na+]` [VPA, sodium 2-propylpentanoate] was tested. Which volume of graft (VPA 150 mg/kg/day i.p., control 9.76±3.19 mm^3, no significant difference) did it give?
Answer: 4.33±2.14 mm^3

Question: What about the “ratio of NeuN+ cells to the number of all the cells in a graft” value (VPA 150 mg/kg/day i.p., control 57.7±9.4%) of the same molecule?
Answer: 77.9±5.1%

Question: And the “number of TH+ cells in a graft” value (VPA 150 mg/kg/day i.p., control 393±311 cells)?
Answer: 1396±864 cells

Question: What about the “ratio of TH+ cells that were FOXA2+” value (VPA 150 mg/kg/day or ZNS 30 mg/kg/day i.p., control 24.7±9.3%) of the same molecule?
Answer: 81.8±33.6%

Question: And the “number of midbrain dopaminergic neurons (TH+ FOXA2+) in a graft” value (VPA 150 mg/kg/day or ZNS 30 mg/kg/day i.p., control 97±76 cells)?
Answer: 984±770 cells
